Measurements: EP0321368A1, “Heterocyclic N-carbamoyl, N-thiocarbamoyl or N-amidino-aminomalonyl or -aminosuccinyl amide derivatives as sweetening agents” (NOFRE, Claude, priority 1987, dated 1989)
In brackets after ≈: the same amount, converted by molar mass.

Legend:
[1] = test system: goûteurs expérimentés; experiment: Sweetening power judged by a panel of eight experienced tasters against a sucrose reference solution; assay type: in vivo; settings: for pouvoir édulcorant: weight basis
Text: Le pouvoir édulcorant des composés ainsi préparés a été évalué par un groupe de huit goûteurs expérimentés. Pour cela, les composés, en solution aqueuse à des concentrations variables, sont comparés, sur le plan gustatif, à une solution témoin de saccharose à 2 % et dans certains cas à 5 % et 10 ^o/o, c'est-à-dire à des concentrations correspondant à celles utilisées lors d'un usage courant. Le pouvoir sucrant des édulcorants de synthèse varie en effet suivant la concentration de la solution de saccharose utilisée comme référence. Le pouvoir édulcorant du composé testé par rapport au saccharose correspond alors au rapport pondéral qui existe entre le composé et le saccharose à égale intensité édulcorante, c'est-à-dire quand les saveurs sucrées de la solution du composé testé et de la solution témoin de saccharose sont considérées, par une majorité de goûteurs, avoir la meme intensité édulcorante.

[2] = Solubility in water at pH 3 (phosphate buffer) near 0 °C, saturated filtrate assayed by HPLC; assay type: physicochemical; settings: for solubility at 1 h: aqueous buffer, pH 3 (phosphate buffer), 0° C, read-out: solubilité; for solubilité, fois plus élevée que celle de l'analogue carbocyclique 4-cyanophényle: ratio to exemple 4 of EP-B-0107597, pH 3, 0° C
Protocol: La solubilité a été mesurée de manière suivante. On met en suspension dans l'eau à pH 3 (tampon phosphate) et à température voisine de 0° C (ce qui correspond aux conditions de préparation et de stockage des boissons gazeuses) un excès du composé dont veut déterminer la solubilité. On soumet alors la suspension, toujours dans un bain de glace, à l'action des ultrasons pendant 60 min, puis on filtre (sur filtre Millipore Millex-HV 0,45 micromètre). Le composé, qui se trouve ainsi dissous à saturation dans le filtrat, est dosé par chromatographie liquide haute performance (HPLC) par rapport à une solution de référence de concentration connue.

[3] = compared with a 2 % sucrose solution

| SMILES | pouvoir édulcorant [1, 3] | other results |
| --- | --- | --- |
| COC(=O)[C@H](Cc1ccccc1)NC(=O)[C@H](CC(=O)O)NC(=S)Nc1cccnc1 [Exemple 2, N-(3-pyridylthiocarbamoyl)-L-aspartyl-L-phénylalanine méthyl ester] | ~1 000 fois celui du saccharose |  |
| COC(=O)[C@H](Cc1ccccc1)NC(=O)[C@H](CC(=O)O)NC(=O)Nc1ccc(C#N)nc1 [Exemple 4, N-(2-cyano-5-pyridylcarbamoyl)-L-aspartyl-L-phénylalanine méthyl ester] | ~8 000 fois celui du saccharose | fois plus sucré que le saccharose ([1]; concentration of the sucrose reference not given): 8 000 fois; pouvoir édulcorant ([1]; compared with a 5 % sucrose solution): ~6 000 fois; pouvoir édulcorant ([1]; compared with a 10 % sucrose solution): ~4 000 fois; solubility at 1 h [2]: ~70 µg/mL (≈ 159 µM); solubilité, fois plus élevée que celle de l'analogue carbocyclique 4-cyanophényle [2]: ~3,5 fois |
| COC(=O)[C@H](Cc1ccccc1)NC(=O)[C@H](CC(=O)O)NC(=O)Nc1ccc2nonc2c1 [Exemple 8, N-(5-benzofurazanylcarbamoyl)-L-aspartyl-L-phénylalanine méthyl ester] | ~5 000 fois celui du saccharose | solubility at 1 h [2]: ~180 µg/mL (≈ 395 µM); solubilité, fois plus élevée que celle de l'analogue carbocyclique 4-cyanophényle [2]: ~9 fois |
| COC(=O)[C@H](Cc1ccccc1)NC(=O)[C@H](CC(=O)O)NC(=S)Nc1cnc(C#N)nc1 [Exemple 7, N-(2-cyano-5-pyrimidinylthiocarbamoyl)-L-aspartyl-L-phénylalanine méthyl ester] | ~50 000 fois celui du saccharose |  |
| COC(=O)[C@H](Cc1ccccc1)NC(=O)[C@H](CC(=O)O)NC(=O)Nc1ccc(C#N)cc1 [exemple 4 du brevet EP-B-0107597, reference compound] |  | solubility at 1 h [2]: ~20 µg/mL (≈ 45.6 µM) |
| COC(=O)[C@H](Cc1ccccc1)NC(=O)[C@H](CC(=O)O)NC(=O)Nc1ccc(Cl)nc1 [Exemple 3, N-(2-chloro-5-pyridylcarbamoyl)-L-aspartyl-L-phénylalanine méthyl ester] | ~500 fois celui du saccharose |  |
| N#Cc1ccc(NC(=O)N[C@@H](CC(=O)O)C(=O)NC(c2ccccc2)c2ccco2)cn1 (stereo partly drawn) [Exemple 5, acide N-(2-cyano-5-pyridylcarbamoyl)-L-aspartique N-[(RS)-alpha-(2-furyl)benzyl] alpha-monoamide] | ~700 fois celui du saccharose |  |
| COC(=O)[C@H](Cc1ccccc1)NC(=O)[C@H](CC(=O)O)NC(=S)Nc1ccc(OC)nc1 [Exemple 6, N-(2-méthoxy-5-pyridylthiocarbamoyl)-L-aspartyl-L-phénylalanine méthyl ester] | ~1 400 fois celui du saccharose |  |
| COC(=O)[C@H](Cc1ccccc1)NC(=O)[C@H](CC(=O)O)NC(=O)Nc1ccc2c(c1)OCO2 [Exemple 11, N-(3,4-méthylènedioxyphénylcarbamoyl)-L-aspartyl-L-phénylalanine méthyl ester] | ~50 fois celui du saccharose |  |
| COC(=O)[C@H](Cc1ccccc1)NC(=O)[C@H](CC(=O)O)NC(=O)Nc1cccnc1 [Exemple 1, N-(3-pyridylcarbamoyl)-L-aspartyl-L-phénylalanine méthyl ester] | ~100 fois celui du saccharose |  |
| COC(=O)[C@H](Cc1ccccc1)NC(=O)[C@H](CC(=O)O)NC(=O)Nc1ccc2nsnc2c1 [Exemple 10, N-(5-benzothiofurazanylcarbamoyl)-L-aspartyl-L-phénylalanine méthyl ester] | ~500 fois celui du saccharose |  |
| COC(=O)[C@H](Cc1ccccc1)NC(=O)[C@H](CC(=O)O)NC(=O)Nc1ccc2c(c1)no[n+]2[O-] [Exemple 9, N-(1-oxyde-5-benzofurazanylcarbamoyl)-L-aspartyl-L-phénylalanine méthyl ester] | ~2 000 fois celui du saccharose |  |
